Assay results published in paper PMC7581941, “Schedule-Dependent Synergy Between the Histone Deacetylase Inhibitor Belinostat and the Dihydrofolate Reductase Inhibitor Pralatrexate in T-and B-cell Lymphoma Cells in vitro” (Frontiers in Cell and Developmental Biology, 2020).
“And” between values parts separate entries of the source, which are not always exact repeats. Identical values can stand only once. Like-named read-outs stand apart in the source and are kept apart here.

How the values were obtained:
FRβ = target: T1, FRβ (Homo sapiens, UniProt P14207); assay: Intact cell binding assay, displacement of radio-active folic acid from CHO-FRβ cells; conditions: folic acid set at 1
T1 construct: expressed in transfected cells; host or cells: CHO-FRβ cells
Experimental: (§1) In order to determine to which extent PLX was a substrate for either the folate receptors, RFC or PCFT we used competition experiments in cell lines overexpressing either transporter ([Westerhof et al., 1995a], [b]; [Jansen et al., 1997]; [Ifergan et al., 2008]; [Lasry et al., 2008]; [van der Heijden et al., 2009]). For FRα and FRβ, we used an intact cell binding assay for competitive binding with KB cells and CHO-FRβ cells, respectively. […] For RFC we used a competition assay with 5 μM [^3H]-l-LV in CCRF-CEM/7A cells (RFC+++) for 2 min at 37°C. CEM-7A cells overexpress the RFC 30-fold over wild-type CCRF-CEM cells ([Jansen et al., 1990], [1997]).

Karpas-299 = assay: Cell growth inhibition (MTT) and median-drug effect analysis, Karpas-299; type: cell-based; conditions: Homo sapiens, read-out: IC50 (50% growth inhibition); Karpas-299, 72 h exposure
Experimental: (§2) Cells were treated immediately with a drug dilution series in cell culture medium (75 μL/well). After an incubation period of approximately 72 h, growth in the 96-wells plates was assessed by adding 15 μL MTT solution (stock solution 5 mg/ml in PBS, final concentration 0.5 mg/ml in culture medium) to each well. After incubation for 3 h in the 5% CO2 incubator with 100% humidity at 37°C, 150 μL acidified 2-propanol was added to the plates to dissolve the formazan crystals. The yellow-colored MTT stock solution is taken up and reduced to a purple formazan in living cells, which directly correlates to the amount of viable cells. As final step, the plates were measured at 540 (or 492) nm by the SPECTRAfluor spectrophotometer.
(§3) Drug interaction in combination experiments was evaluated using the median-drug effect analysis using CalcuSyn software ([Bijnsdorp et al., 2011]). In order to evaluate combination indexes [CI] from different experiments, the CI values at Fraction Affected (FA) values >0.5 (preferably around 0.5, 0.75, and 0.9) were averaged for each specific experiment. The means of the separate experiments were subsequently averaged so that a mean ± Standard Error of the Mean (SEM) was calculated from three or more separate experiments. […]

CCRF-CEM = assay: Cell growth inhibition (MTT), CCRF-CEM; type: cell-based, human
Experimental: as §2

lymphoma cell lines = assay: Cell growth inhibition and median-drug effect analysis, panel of lymphoma cell lines; type: cell-based; conditions: 72 hr exposure, panel of cell lines; read-out: IC50, range over the cell lines
Experimental: (§4) Cells were plated in 96-wells flat bottom plates, at 3,000 or 6,000 cells per well in culture medium (75 μL/well) or in 24-wells plates (60,000 cells/well) for the counting assays for which a Coulter Counter was used. Cells were treated immediately with a drug dilution series in cell culture medium (75 μL/well). […] After incubation for 3 h in the 5% CO2 incubator with 100% humidity at 37°C, 150 μL acidified 2-propanol was added to the plates to dissolve the formazan crystals. The yellow-colored MTT stock solution is taken up and reduced to a purple formazan in living cells, which directly correlates to the amount of viable cells. As final step, the plates were measured at 540 (or 492) nm by the SPECTRAfluor spectrophotometer. […] Drug interaction in combination experiments was evaluated using the median-drug effect analysis using CalcuSyn software ([Bijnsdorp et al., 2011]). […] The means of the separate experiments were subsequently averaged so that a mean ± Standard Error of the Mean (SEM) was calculated from three or more separate experiments. […] Drug combinations were designed based on the standard CalcuSyn approach in which a series of drug concentrations were combined in a fixed molar ratio, based on the IC50 of each drug. A variation of this approach was a sequential scheduling in which cells were exposed for 72 h to BLS, while in the combination PLX was added after 24 h and cells were exposed from 24 to 72 h.

FRα = target: T2, FRα (Homo sapiens, UniProt P15328); assay: Intact cell binding assay, displacement of radio-active folic acid from KB cells; conditions: inverse ratio of compound to displace 50% of radio-active folic acid, folic acid set at 1
T2 construct: endogenous in cells; host or cells: KB cells
Experimental: as §1

PCFT = target: T3, PCFT (Homo sapiens, UniProt Q96NT5); assay: PCFT competition assay: inhibition of [3H]-l-LV influx in CHO-cells lacking RFC and transfected with PCFT; type: cell-based; conditions: for IC50: 2.5 μM [3H]-l-LV, pH 5.5, 3 min, 37°C, read-out: PCFT: concentration of unlabeled drug necessary to inhibit [3H]-LV influx
T3 construct: expressed in transfected cells; host or cells: CHO cells lacking RFC
T3 sequence (Q96NT5 1-459): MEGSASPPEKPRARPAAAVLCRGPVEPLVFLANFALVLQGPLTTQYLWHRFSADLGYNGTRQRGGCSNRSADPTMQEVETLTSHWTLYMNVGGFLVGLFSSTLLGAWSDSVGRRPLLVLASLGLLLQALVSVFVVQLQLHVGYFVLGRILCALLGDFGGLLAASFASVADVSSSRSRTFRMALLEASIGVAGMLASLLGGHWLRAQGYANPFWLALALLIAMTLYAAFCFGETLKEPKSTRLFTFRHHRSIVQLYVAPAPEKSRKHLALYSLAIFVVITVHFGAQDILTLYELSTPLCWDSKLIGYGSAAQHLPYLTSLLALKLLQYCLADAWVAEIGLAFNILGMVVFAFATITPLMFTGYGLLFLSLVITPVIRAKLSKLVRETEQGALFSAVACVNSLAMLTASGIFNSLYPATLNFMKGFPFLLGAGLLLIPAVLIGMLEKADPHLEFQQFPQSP
Experimental: The affinity for PCFT of PLX was assessed in competition with 2.5 μM ^3H-l-LV at pH 5.5 in CHO-cells lacking RFC and transfected with PCFT. […] […] Also for PCFT relative affinities were expressed as the concentration of unlabeled drug necessary to inhibit [^3H]-LV influx.

HT cells [1] = assay: FACS propidium iodide staining: cell cycle distribution and cell death, HT; type: cell-based; conditions: drugs at their IC50, untreated 3.5%
Experimental: (§5) Propidium iodide staining (DNA staining) was used to determine cell cycle distribution and the extent of cell death. Cells (120,000 per well in a 24-wells plate) were exposed to PLX or BLS or the combination for 24, 48, or 72 h. Cells were harvested, suspended in 1.0 ml phosphate buffered saline/1% Bovine serum albumin and fixed with 70% ethanol. After centrifugation the pellet was resuspended in hypotonic propidium iodide (0.1 mg/ml), Triton-X-100 (0.1%), sodium citrate (1 mg/ml) and RNAse A (0.5 mg/ml) (final concentrations in saline) and stored in dark on ice for 30 min ([De Wilt et al., 2012]). DNA content of the cells to determine cell cycle effects and cell kill was analyzed by a FACScalibur (Becton Dickinson Immunocytometry Systems, San Jose, CA, United States) with an acquisition of 10,000 events as described previously ([De Wilt et al., 2012]).

RFC = target: T4, RFC (Homo sapiens, UniProt P41440); assay: RFC competition assay: inhibition of [3H]-l-LV uptake in CCRF-CEM/7A cells (RFC+++); type: cell-based; conditions: for IC50: 5 μM [3H]-l-LV, 2 min, 37°C, CCRF-CEM/7A cells, read-out: RFC: concentration of unlabeled drug necessary to inhibit [3H]-l-LV uptake by 50%
T4 construct: CEM-7A cells overexpress the RFC 30-fold over wild-type CCRF-CEM cells; endogenous in cells; host or cells: CCRF-CEM/7A (CEM-7A) cells
T4 sequence (P41440 1-591): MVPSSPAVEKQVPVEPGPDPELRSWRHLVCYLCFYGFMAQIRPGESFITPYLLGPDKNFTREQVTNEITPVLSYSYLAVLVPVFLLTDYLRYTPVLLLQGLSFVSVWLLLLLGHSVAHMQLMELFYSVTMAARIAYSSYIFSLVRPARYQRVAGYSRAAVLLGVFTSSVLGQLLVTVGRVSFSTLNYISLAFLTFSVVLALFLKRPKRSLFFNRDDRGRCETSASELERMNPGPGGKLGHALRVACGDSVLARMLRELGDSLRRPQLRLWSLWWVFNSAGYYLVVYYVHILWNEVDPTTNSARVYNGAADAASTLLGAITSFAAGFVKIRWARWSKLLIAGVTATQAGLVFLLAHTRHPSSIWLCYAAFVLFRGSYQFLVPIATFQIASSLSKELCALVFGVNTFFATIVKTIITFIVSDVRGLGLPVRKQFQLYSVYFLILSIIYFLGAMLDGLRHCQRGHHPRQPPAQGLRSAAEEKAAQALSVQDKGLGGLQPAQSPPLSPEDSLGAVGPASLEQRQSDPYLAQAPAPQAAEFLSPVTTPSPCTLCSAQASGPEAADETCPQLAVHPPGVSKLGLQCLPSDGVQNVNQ
Experimental: For FRα and FRβ, we used an intact cell binding assay for competitive binding with KB cells and CHO-FRβ cells, respectively. […] For RFC we used a competition assay with 5 μM [^3H]-l-LV in CCRF-CEM/7A cells (RFC+++) for 2 min at 37°C.
Transport was determined by evaluation of the uptake of 5 μM [^3H]-l-LV for 2 min in CCRF-CEM-7A cells, which overexpress RFC. […] Values are from one representative experiment in triplicate; performed three times. Error bars represent SEM, when not visible, they are within the size of the marker.

Hut-29 = assay: Cell growth inhibition (MTT) and median-drug effect analysis, Hut-29; type: cell-based; conditions: read-out: IC50 (50% growth inhibition); Hut-29, 72 h exposure
Experimental: as §2, §3

SUDHL-4 cells [2] = assay: FACS propidium iodide staining: cell death, SUDHL-4; type: cell-based; conditions: drugs at their IC50, untreated 5.0%
Experimental: as §5

cell proliferation = tested on: cell proliferation; parameters: method as in Tonner et al., 2006; conditions: ref Tonner et al., 2006; cited from earlier work
SUDHL-4 cells [3] = assay: Cell growth inhibition (cell counting) and median-drug effect analysis, SUDHL-4; type: cell-based; conditions: Homo sapiens, SU-DHL-4, read-out: IC50 (50% growth inhibition); SUDHL 4, 72 h exposure
HT cells [4] = assay: Cell growth inhibition (cell counting) and median-drug effect analysis, HT; type: cell-based; conditions: for IC50: HT
Jeko-1 = assay: Cell growth inhibition (MTT) and median-drug effect analysis, Jeko-1; type: cell-based; conditions: Homo sapiens, read-out: IC50 (50% growth inhibition); Jeko-1, 72 h exposure
Experimental: as §4, with “A variation of this approach was a sequential scheduling in which cells were exposed for 72 h to BLS, while in the combination PLX was added after 24 h and cells were exposed from 24 to 72 h.” left out

SUDHL-5 cells = assay: Cell growth inhibition (MTT) and median-drug effect analysis, SUDHL-5; type: cell-based
Experimental: as §2
Drug interaction in combination experiments was evaluated using the median-drug effect analysis using CalcuSyn software ([Bijnsdorp et al., 2011]). In order to evaluate combination indexes [CI] from different experiments, the CI values at Fraction Affected (FA) values >0.5 (preferably around 0.5, 0.75, and 0.9) were averaged for each specific experiment. The means of the separate experiments were subsequently averaged so that a mean ± Standard Error of the Mean (SEM) was calculated from three or more separate experiments. […] Drug combinations were designed based on the standard CalcuSyn approach in which a series of drug concentrations were combined in a fixed molar ratio, based on the IC50 of each drug. A variation of this approach was a sequential scheduling in which cells were exposed for 72 h to BLS, while in the combination PLX was added after 24 h and cells were exposed from 24 to 72 h. In the non-fixed ratio approach one drug was used at the IC25 (concentration that results in 25% growth inhibition) and the other drug was added in a concentration range.

T2 sequence (P15328 25-257): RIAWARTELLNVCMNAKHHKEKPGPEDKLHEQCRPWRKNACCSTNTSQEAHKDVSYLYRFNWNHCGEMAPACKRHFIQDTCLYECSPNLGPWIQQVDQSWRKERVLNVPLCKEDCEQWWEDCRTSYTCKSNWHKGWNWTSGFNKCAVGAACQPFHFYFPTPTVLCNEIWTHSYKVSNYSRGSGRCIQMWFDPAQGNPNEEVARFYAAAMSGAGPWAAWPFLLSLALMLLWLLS
T1 sequence (P14207 17-255, species assumed): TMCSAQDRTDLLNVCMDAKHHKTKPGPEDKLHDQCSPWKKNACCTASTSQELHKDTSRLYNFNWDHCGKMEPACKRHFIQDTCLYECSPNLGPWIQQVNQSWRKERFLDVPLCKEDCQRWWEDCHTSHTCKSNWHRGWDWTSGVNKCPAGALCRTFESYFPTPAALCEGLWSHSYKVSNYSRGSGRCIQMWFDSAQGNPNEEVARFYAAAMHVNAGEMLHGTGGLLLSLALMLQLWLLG

C#CCC(Cc1cnc2nc(N)nc(N)c2n1)c1ccc(C(=O)N[C@@H](CCC(=O)O)C(=O)O)cc1 (stereo partly shown) [PLX, Pralatrexate]
FRβ relative affinity (FRβ): < 0.001
IC50 (Karpas-299): 0.0247 ± 0.0053 µM
reversal of cytotoxicity by l-LV (CCRF-CEM; 5 μM l-LV, CEM cells): 2965 fold
IC50 (CCRF-CEM; Homo sapiens, read-out: IC50 (50% growth inhibition), CCRF-CEM, 72 h exposure): 0.0026 ± 0.0004 µM
IC50 (lymphoma cell lines): 0.0028 to 0.02 µM
FR-α relative affinity (FRα): 0.0035 and 0.0035 ± 0.0005
IC50 (PCFT): 15 µM and 14.8 µM
substrate for PCFT at physiological pH (PCFT; pH 7.4): very poor substrate
accumulation of cells in the sub-G1 phase (cell death) (HT cells [1]): 13%
RFC substrate affinity, fold better compared to methotrexate (RFC): 6 fold
RFC substrate affinity, fold better than levoleucovorin (l-LV) (RFC): 2 fold
IC50 (RFC): 2.8 ± 0.1 µM
IC50 (Hut-29): 0.0028 ± 0.0005 µM
accumulation of cells in the sub-G1 phase (cell death) (SUDHL-4 cells [2]): 22.1%
potency in suppressing cell proliferation relative to methotrexate (cell proliferation): one log more potent
IC50 (SUDHL-4 cells [3]): 0.0056 ± 0.0004 µM
IC25 (concentration that results in 25% growth inhibition) (HT cells [4]; HT cells, 72 h): ~0.005 µM
IC50 (HT cells [4]; Homo sapiens, 72 h, read-out: IC50 (50% growth inhibition), HT, 72 h exposure): ~0.01 µM
IC50 (HT cells [4]; read-out: IC50 (50% growth inhibition), 72 h exposure): 0.0074 ± 0.0005 µM
IC50 (Jeko-1): 0.0187 ± 0.0042 µM
IC50 (SUDHL-5 cells; Homo sapiens, SU-DHL-5, read-out: IC50 (50% growth inhibition), SUDHL 5, 72 h exposure): 0.0055 ± 0.0009 µM
IC25 (concentration that results in 25% growth inhibition) (SUDHL-5 cells; SUDHL-5 cells, 72 h): ~0.004 µM

Nc1nc(=O)c2c([nH]1)NC[C@H](CNc1ccc(C(=O)N[C@@H](CCC(=O)O)C(=O)O)cc1)N2C=O [l-LV, l-Leucovorin]
FR-α relative affinity (FRα): 0.073 ± 0.0010
IC50 (PCFT): 4 ± 0.1 µM
IC50 (RFC): 5.5 ± 0.7 µM
